According to paper PMC9416745, “The Effect of 1,2,4-Triazole-3-thiol Derivatives Bearing Hydrazone Moiety on Cancer Cell Migration and Growth of Melanoma, Breast, and Pancreatic Cancer Spheroids” (Pharmaceuticals, 2022):

Experiments:
[1] = system: IGR39, MDA-MB-231 and Panc-1 cell migration; test: 'Wound healing' cell migration assay, stated for all tested cell lines; format: cell-based, human; conditions: 10 µM, compared to the control
Experimental: (§1) Briefly, melanoma IGR39, human triple-negative breast cancer MDA-MB-231, and pancreatic carcinoma Panc-1 cells were seeded in 24-well plates at a density of 6 × 10^4 cells/well and incubated for 48 h in previously described cell culture medium at 37°C in a humidified atmosphere containing 5% CO2. Then the scratch was made using a 100 µL pipette tip. Cells were washed once with PBS, and the fresh medium containing 10 µM of compounds 4, 7, 8, 10, 14, 17, and 18 was added. Medium containing 0.1% DMSO was used as a negative control. Cells were incubated at 37 °C in a humidified atmosphere containing 5% CO2.
(§2) The ‘Wounds’ were captured at the intervals of 0 h, 24 h, 48 h and 72 h (only for the Panc-1 cell line) from scratch under the phase contrast microscope at a 4× magnification. The wound area was analysed using the ImageJ program (National Institute of Health, Bethesda, MD, USA).

Panc-1 cells = test: MTT, effect of 10 µM compound on Panc-1 cell viability (Procedure S1); format: cell-based; conditions: Homo sapiens, after 72 h
Experimental: (§3) The ‘Wound healing’ assay was used to evaluate compound activity on cell migration. […] The effect of this concentration on cell viability after 24 h, 48 h and 72 h was studied in separate experiments (Figures S58–60) using the MTT assay (the procedure is described in Supplementary Materials).
(§4) Procedure S1. Evaluation of 10 µM compound concentration effect on cell line viability.
(§5) The effect of 10 µM compounds on cell viability was studied using 3-(4,5-dimethylthiazol-2-yl)-2,5-diphenyltetrazolium bromide (MTT; Sigma-Aldrich Co., St Louis, MO, USA) assay. IGR39, MDA-MB-231, and Panc-1 cells were seeded in 96-well plates (Corning) in triplicates at a volume of 100 µL at 4 × 10^3 cells/well). After 24 h, the cells were treated with 10 µM of compounds 4, 7, 8, 10, 14, 17, and 18. After 24 h, 48 h and 72 h (only Panc-1 cells), the MTT reagent has been added and cells were incubated for 4 h. Then the medium was aspirated, and the formed formazan crystals were dissolved in 100 µL DMSO (Sigma-Aldrich Co., St. Louis, MO, USA). The absorbance was measured at 570 and 630 nm using a multi-detection microplate reader. Compound effect on cell viability was calculated according to a formula:
(§6) Relative cell viability ሺ%ሻ = A− A଴
(§7) A – mean of absorbance of tested compound, A0 – mean of absorbance of blank (no cells, positive control), ANC – mean of absorbance of negative control (only cells, no treatment).

[2] = system: IGR39, MDA-MB-231 and Panc-1 tumour spheroids; test: 3D cell cultures (spheroids), stated for all three spheroid types; format: cell-based, human; conditions: 10 µM, 8 days of incubation
Experimental: (§8) Cancer cell spheroids were formed using the magnetic 3D Bioprinting method, as described elsewhere. Briefly, melanoma IGR39, triple-negative breast cancer MDA-MB-231 cells, pancreatic cancer Panc-1 cells, and human fibroblasts at 70% confluency in a 6-well plate were incubated with Nanoshuttle (n3D Biosciences, Inc., Houston, TX, USA) for 8 h at 37°C in a humidified atmosphere containing 5% CO2. Then cells were trypsinized, centrifuged, and seeded into an ultra-low attachment 96-well plate in a volume of 100 µL (1.5 × 10^3 cancer cells and 1.5 × 10^3 human fibroblasts/well). The plate was placed on a magnetic drive and incubated for 2 days at 37°C in a humidified atmosphere containing 5% CO2. Then the fresh medium containing 10 µM of the tested compound was added to the wells. Spheroids were captured every two days using the Olympus IX73 inverted microscope (OLYMPUS CORPORATION, Tokyo, Japan). Quantitative analysis of compound anticancer activity in spheroids was performed using ImageJ, version 1.53o (National Institutes of Health, USA) and Microsoft Office Excel 2016 software (Microsoft Corporation, Redmond, WA, USA).
(§9) On the last day of incubation, 10 µL of WST-1 reagent (Sigma-Aldrich Co, St. Louis, MO, USA) was added to each well with spheroids. After 10 h of incubation, 50 µL of liquid from each well were transferred to the new 96-well plate and the absorbance was measured at 460 and 530 nm using a multi-detection microplate reader. Spheroid cell viability was calculated using a formula provided in Section 3.2.2.

[3] = system: human malignant melanoma cell line IGR39; test: MTT cell viability assay, IGR39; format: cell-based; conditions: 50 µM, 72 h
Experimental: (§10) The effect of synthesized compounds on cell viability was studied using 3-(4,5-dimethylthiazol-2-yl)-2,5-diphenyltetrazolium bromide (MTT; Sigma-Aldrich Co., St Louis, MO, USA) assay, as described elsewhere. Briefly, IGR39, MDA-MB-231, Panc-1, and HF cells were seeded in 96-well plates (Corning) in triplicate at a volume of 100 μL (IGR39, MDA-MB-231 and Panc-1: 4 × 10^3 cells/well; HF: 5 × 10^3 cells/well). After 24 h, cells were treated with 50 μM of tested compounds. After 72 h, the MTT reagent was added and cells were incubated for 4 h. Then the medium was aspirated, and the formed formazan crystals were dissolved in 100 μL DMSO (Sigma-Aldrich Co., St. Louis, MO, USA). The absorbance was measured at 570 and 630 nm using a multi-detection microplate reader. The compound effect on cell viability was calculated using the formula:(1) Relative cell viability (%)=A−A0/ANC−A0 where
(§11) • A—mean of absorbance of the tested compound, • A0—mean of absorbance of blank (no cells, positive control), and • ANC—mean of absorbance of negative control (only cells, no treatment).
(§12) The compound serial dilutions from 50 µM to 1.56 µM were made in a medium and added to the cells in triplicates. The EC50 value representing the concentration of a compound causing 50% reduction of cancer cell metabolic activity was calculated using the Hill equation.

[4] = system: IGR39, MDA-MB-231 and Panc-1 cell lines; test: MTT cell viability assay, result stated for all tested cancer cell lines together; format: cell-based, human; conditions: 72 h; for EC50: Homo sapiens, range over cancer cell lines, read-out: EC50 values against the tested cancer cell lines (range)
Experimental: as §10, §11, §12

melanoma IGR39 spheroids = test: 3D cell cultures (spheroids), IGR39; format: cell-based, human; conditions: 10 µM, 8 days of incubation
Experimental: as §8, §9

[5] = system: human triple-negative breast cancer MDA-MB-231; test: MTT cell viability assay, MDA-MB-231; format: cell-based; conditions: 50 µM, 72 h
Experimental: as §10, §11, §12

IGR39 cells = test: MTT, effect of 10 µM compound on IGR39 cell viability (Procedure S1); format: cell-based; conditions: Homo sapiens, IGR-39, after 48 h of incubation
Experimental: as §3, §4, §5, §6, §7

[6] = system: MDA-MB-231 cell migration; test: 'Wound healing' cell migration assay, MDA-MB-231; format: cell-based, human; conditions: 10 µM, both after 24 h and 48 h of incubation
Experimental: as §1, §2

melanoma A375 cell = system: melanoma A375 cell; set-up: method as in PMID 21700700; conditions: cited from earlier work
melanoma cell = system: melanoma cell; set-up: method as in PMID 27572607; conditions: cited from earlier work

Structure (SMILES)	viability at 10 µM (Panc-1 cells) [%]	activity in 3D cell cultures (spheroids) [2]	EC50 [4] [µM]	melanoma IGR39 spheroid growth (melanoma IGR39 spheroids)	melting point [°C]	viability at 10 µM (IGR39 cells) [%]	MDA-MB-231 cell migration [6]	further results
O=C(CSc1nnc(CCNc2ccccc2)n1-c1ccccc1)NN=C1C(=O)Nc2ccccc21 [Compound 4, N′-(2-oxoindolin-3-ylidene)-2-((4-phenyl-5-(2-(phenylamino)ethyl)-4H-1,2,4-triazol-3-yl)thio)acetohydrazide]	74.3 ± 3.4	most active	2 to 17	mostly inhibited	252 to 253	–	–	effect on cell migration [1]: did not possess activity; selectivity against the melanoma IGR39 cell line (screening) [3]: moderate selectivity
O=C(CSc1nnc(CCNc2ccccc2)n1-c1ccccc1)NN=Cc1ccc[nH]1 [Compound 14, N′-((1H-pyrrol-2-yl)methylene)-2-((4-phenyl-5-(2-(phenylamino)ethyl)-4H-1,2,4-triazol-3-yl)thio)acetohydrazide]	–	most active	2 to 17	mostly inhibited	215 to 216	67.9 ± 1.8	migrated slower	activity towards the triple-negative breast cancer cell line (screening) [5]: relatively higher activity; activity against the IGR39 cell line (screening) [3]: least active
O=C(CSc1nnc(CCNc2ccccc2)n1-c1ccccc1)NN=Cc1ccccc1O [Compound 17, N′-(2-hydroxybenzylidene)-2-((4-phenyl-5-(2-(phenylamino)ethyl)-4H-1,2,4-triazol-3-yl)thio)acetohydrazide]	79.7 ± 3.8	most active	–	began to disintegrate	–	76 ± 7.2	migrated slower	activity against all tested cancer cell lines (screening) ([4]; 50 µM): most active
CN(C)/N=N/c1[nH]cnc1C(N)=O [Dacarbazine]	–	–	–	–	–	–	–	concentrations inhibiting melanoma A375 cell proliferation (melanoma A375 cell): 25 to 100 µM
CC(C)(C)c1nc(-c2cccc(NS(=O)(=O)c3c(F)cccc3F)c2F)c(-c2ccnc(N)n2)s1 [dabrafenib]	–	–	–	–	–	–	–	concentration reducing melanoma cell viability (melanoma cell): nanomolar
